From patent US20160367497A1, “METHODS AND COMPOSITIONS FOR TREATING NEUROPATHIES” (Washington University, priority 2007, published 2016)

Experiments:
neuro2A cells [1] = assay: Neuro2a cell proliferation, Ki67 immunocytochemistry; format: cell-based; conditions: 0.2% fetal calf serum; AICAR 1 mM or resveratrol 10 μM; 24 h after plating; DMSO controls 50%
Description: (§1) Neuro2a cells are a widely used as in vitro model of neuronal differentiation. These cells cease to proliferate and begin to differentiate, as evidenced by neurite outgrowth, in response to serum starvation, retinoic acid, or growth factors like neurotrophins and GDNF family ligands. […] Neuro2a cells grown under serum starvation conditions (0.2% fetal calf serum) were treated with AICAR (1 mM) or resveratrol (10 μM).

AMPK = AMPK phosphorylation in Neuro2a cells (phospho-specific western blot); format: cell-based; conditions: resveratrol 10 μM or AICAR 1 mM; 2 h up to 72 h
Description: (§2) FIG. 10A-D illustrates resveratrol activation of AMP kinase in Neuro2a cells. Neuro2a cells were switched to serum-starvation medium (medium containing 0.2% FCS) and treated with DMSO (vehicle control), resveratrol (10 μM) or 5-aminoimidazole-4-carboxamide-1-β-D-ribofuranoside (AICAR) (1 mM). […] Very low levels of phosphorylated AMPK and ACC were detected in DMSO treated control cells at all time points tested. (C) Densitometric analysis of changes in phosphorylated AMPK and (D) phosphorylated ACC under different conditions is shown.
(§3) Cell culture and Reagents. Neuro2 cells obtained from ATCC were grown in MEM with 1.5 g/L sodium bicarbonate, 0.1 mM nonessential amino acids, 0.1 mM sodium pyruvate, 2 mM L-glutamine with 10% FCS. For differentiation, cells were switched to serum-starvation medium (containing 0.2% FCS). For neurite outgrowth measurements, experiments were done in quadruplicate and 100 neurites per well were randomly measured using the Metamorph software. Dorsal root ganglia sensory and cortical neurons were established from E13.5 mouse embryos, maintained in neurobasal medium supplemented with B27 (and NGF for DRG neurons) and infected with lentiviruses as described (Araki et al., 2004, Science 305:1010-1013; Hawley et al., 2005, Cell Metab 2:21-23). Resveratrol was a gift from Sirtris Pharmaceuticals (Cambridge Mass.) and AICAR was obtained from Toronto Research (North York, Canada). Splitomycin and Compound C were purchased from Biomol (Plymouth Meeting, Pa.) and Calbiochem (San Diego, Calif.). Sirtinol and nicotinamide were purchased from Sigma (Saint Louis, Mo.)
Plasmids and viruses. The dominant negative (dnAMPK) and constitutively active (caAMPK) plasmids were gifts from Russell Jones (University of Pennsylvania, Philadelphia Pa.), and pCXN-Cre was a gift of Inder Verma (Salk Institute, San Diego, Calif.). All constructs were subcloned into the lentiviral shuttle vector FCIV and verified by nucleotide sequence analysis. Viruses were prepared as previously described (Araki et al., 2004, Science 305:1010-1013). Protein and mRNA analysis. Immunoprecipitations and western blot analysis were performed by standard methods using antibodies directed against total AMPK, phosphorylated AMPK, total ACC or phosphorylated ACC that were obtained from Cell Signaling Technology (Beverley, Mass.). The phospho-AMPK antibody detects endogenous AMPK α1 and α2 when phosphorylated at threonine 172. The LKB1 antibody was purchased from Upstate (Lake Placid, N.Y.). Quantitative RT-PCR analysis was performed using Sybr-Green methodology on a model 7700 instrument (Applied Biosystems) as previously described (Araki et al., 2004, Science 305:1010-1013). Primer sequences were those used in previous studies (Motoshima, et al., 2006, J Physiol 574:63-71).
To explore the role of polyphenols, in particular, of resveratrol, we tested whether resveratrol altered the activity of AMPK in neuronal cells. Neuro2a neuroblastoma cells were treated with resveratrol (10 μM) and AMPK activation was examined using phospho-AMPK specific antibodies. […] To confirm that AMPK activation by resveratrol results in typical AMPK-mediated downstream responses, we monitored phosphorylation of ACC (acetyl Co-A carboxylase), a primary target of activated AMPK. […] To examine a potential mechanism of resveratrol-mediated AMPK activation, we measured cellular ATP levels as a decreased ATP:AMP ratio increases the phosphorylation of AMPK. ATP levels were monitored using a luciferase-based assay in neuro2A cells treated with resveratrol or Oligomycin, an inhibitor of mitochondrial oxidative phosphorylation and therefore ATP production. While the ATP concentration dropped from 5.874 μM in DMSO-treated cells (control) to 0.976 μM in Oligomycin treated cells within 2 hr, the ATP concentration in resveratrol-treated Neuro2a cells was not altered from control either at 2 hr (6.33 μM) or 24 hr (6.42 μM).

neuro2A cells [2] = assay: survival of Neuro2A cells in nutrient-deprived conditions; format: cell-based; conditions: regardless of the FCS concentration (10% or 0.2%)
Description: When Neuro2A cells are grown in culture in presence of 10% FCS, cells proliferate and ultimately die if cells are not passaged. If grown in the presence of 0.2% FCS, neuro2A cells differentiate and project neurites but ultimately die within one week.

DRG neurons = assay: axonal injury of DRG neurons after hypoxia and reoxygenation; format: cell-based; conditions: preincubation 45 min or lentiviral expression; 0.1% O2 8 or 16 hrs, 20 hrs reoxygenation
Description: FIG. 18 illustrates that activation of AMPK protects axons while inhibition of AMPK function enhances axonal injury during oxygen deprivation.
To examine whether AMPK activation prior to hypoxic stress protects axons from injury, either constitutively active AMPK (CaAMPK) was expressed in DRG neurons, or neurons were preincubated with the AMPK activator AICAR for 45 min prior to hypoxia. […] Thus, treatments that increase AMPK activity (e.g. resveratrol, AICAR) can block the axonal damage and are neuroprotective.

[3] = test system: acetyl Co-A carboxylase (ACC); assay: ACC phosphorylation in Neuro2a cells (phospho-specific western blot); format: cell-based; conditions: resveratrol 10 μM or AICAR 1 mM; all time points to 72 hr
Description: as §2
Plasmids and viruses. […] Quantitative RT-PCR analysis was performed using Sybr-Green methodology on a model 7700 instrument (Applied Biosystems) as previously described (Araki et al., 2004, Science 305:1010-1013). […]
To explore the role of polyphenols, in particular, of resveratrol, we tested whether resveratrol altered the activity of AMPK in neuronal cells. […] To confirm that AMPK activation by resveratrol results in typical AMPK-mediated downstream responses, we monitored phosphorylation of ACC (acetyl Co-A carboxylase), a primary target of activated AMPK. […] To examine a potential mechanism of resveratrol-mediated AMPK activation, we measured cellular ATP levels as a decreased ATP:AMP ratio increases the phosphorylation of AMPK. […]

neuro2A cells [4] = assay: neurite outgrowth in Neuro2a cells; format: cell-based; conditions: 0.2% FCS; resveratrol 10 μM or AICAR 1 mM
Description: FIG. 11A-D illustrates the resveratrol and AICAR stimulation of neurite outgrowth in Neuro2a cells. Neuro2a cells were switched to serum-starvation medium (medium containing 0.2% FCS) and treated with DMSO (vehicle control), resveratrol (10 μM) or AICAR (1 mM). (A) Serum deprivation of Neuro2a cells results in growth of short neurites that increase in length over 72 h. (B) Resveratrol induced rapid neurite outgrowth resulting in elaborate neurite network formation by 48 h. (C) AICAR stimulated extensive neurite outgrowth similar to that observed with resveratrol. (D).
FIG. 12A-M illustrates the dependency of resveratrol-induced neurite outgrowth and mitochondrial biogenesis on AMPK. Neuro2a cells were infected with lentivirus expressing GFP only (FUGW, control), dominant negative AMPK (dnAMPK) or constitutively active AMPK (caAMPK). Three days later cells were shifted to serum-starvation medium containing DMSO (control) or resveratrol (10 μM). In addition, uninfected Neuro2a cells in serum-starvation medium were treated with resveratrol alone, the AMPK inhibitor Compound C (CC, Biomol International L.P. (Plymouth Meeting, Pa.)) (10 μM) alone or with resveratrol and CC together. Images of the cultures captured in bright field and green fluorescence were overlaid to visualize neurite outgrowth. […] Neurite length in cells treated with caAMPK+resveratrol is also shown (G). […] Values were normalized to the 18S transcript. Data shown is representative of two independent experiments.
as §3, §1
Since resveratrol activated AMPK and altered the differentiation of Neuro2a cells, we next asked whether AMPK activity was required for resveratrol-induced neurite outgrowth. To address this issue, we infected Neuro2a cells with lentivirus expressing either GFP alone (FUGW-control) or dominant negative AMPK (dnAMPK). After 3 days growth to allow robust lentiviral transgene expression, the medium was replaced with serum starvation medium. […] Resveratrol-induced neurite outgrowth was reduced in the presence of the AMPK pharmacological inhibitor Compound C (CC 10 μM) further supporting the importance of AMPK activity for resveratrol-induced neurite outgrowth.

Nrk2 = assay: NAD synthesis enzyme mRNA in rotenone-treated DRG neurons (qRT-PCR); format: cell-based, rat; conditions: 0.1 μM and 1 μM, 24 hours
Description: FIG. 6A-B illustrates expression analysis of NAD biosynthetic enzymes in mammal showing (A) NAD biosynthesis enzyme mRNA levels after 1, 3, 7, and 14 days after nerve transection in rat DRG were determined by qRT-PCR in which the expression level was normalized to glyceraldehydes-3-phosphate dehydrogenase expression in each sample and is indicated relative to the expression level in non-axotomized DRG; (B) neurite degeneration introduced by incubation DRG in 1 or 0.1 μM rotenone for indicated time and NAD synthesis enzyme mRNA levels were determined by qRT-PCR as described in the text.
Real-time quantitative reverse transcription-PCR analysis. All the surgical procedures were performed according to National Institute of Health guidelines for care and use of laboratory animals at Washington University. […] Quantitative reverse transcription (RT)-PCR was performed by monitoring in real-time the increase in fluorescence of the SYBR-GREEN dye on a TaqMan 7700 Sequence Detection System (Applied Biosystems).
To investigate the expression of mammalian NAD biosynthetic enzymes in the nervous system, we performed quantitative RT-PCR using RNA from mouse brain, retina, spinal code, and DRG at age of E14, P0, P7, P14 and P21. […] We also analyzed expression of NAD synthetic enzymes during the axonal degeneration caused by neurotoxin in cultured rat DRG neuron. […]

| Compound | proliferating cells (Ki67) (neuro2A cells [1]) | AMPK phosphorylation (AMPK) | cell survival (neuro2A cells [2]) | axonal injury (axonal beading) after hypoxia (DRG neurons) | ACC phosphorylation [3] | neurite outgrowth compared to serum starvation alone (neuro2A cells [4]) | increase in expression of Nrk2 (Nrk2) |
| --- | --- | --- | --- | --- | --- | --- | --- |
| NC(=O)c1ncn([C@@H]2O[C@H](CO)[C@@H](O)[C@H]2O)c1N [AICAR, 5-aminoimidazole-4-carboxamide-1-β-D-ribofuranoside, reference compound] | 12.8% | stimulated AMPK phosphorylation | resistant to death for a prolonged period of time | significantly reduced axonal injury after hypoxia | promoted increased phosphorylation | increased neurite outgrowth |  |
| C=C(C)[C@H]1Cc2c(ccc3c2O[C@@H]2COc4cc(OC)c(OC)cc4[C@@H]2C3=O)O1 [rotenone] |  |  |  |  |  |  | more than 6 folds |
